The text below walks through data of patent US20170144998A1, “ELASTASE INHIBITORS” (The California Institute for Biomedical Research, priority 2014, published 2017).

The target of this assay is T1, HNE (human neutrophil elastase) (Homo sapiens, UniProt P08246).
T1 construct: purchased Elastin Products (Owensville, Mo., USA) SE563
T1 sequence (P08246 30-267): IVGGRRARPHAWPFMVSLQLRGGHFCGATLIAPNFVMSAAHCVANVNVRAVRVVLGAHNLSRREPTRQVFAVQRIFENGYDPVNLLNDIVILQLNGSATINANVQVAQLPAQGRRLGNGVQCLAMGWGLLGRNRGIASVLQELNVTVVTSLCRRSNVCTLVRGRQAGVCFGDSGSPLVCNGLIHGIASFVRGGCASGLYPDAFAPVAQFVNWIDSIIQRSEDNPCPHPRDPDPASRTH
Kind of assay: Elastase enzyme in-vitro inhibition assay. Format: biochemical. Particulars: HNE 20 nM, 15 min incubation at room temperature, substrate MeOSuc-AAPV-AMC 100 μM, PBS buffer. As for the experimental part: HNE were purchased from Elastin Products (Owensville, Mo., USA) with catalog number SE563. Fixed concentrations of HNE (20 nM) were incubated with various concentrations of inhibitors in PBS buffer in opaque 96-well plates. After 15 min incubation at room temperature, the corresponding fluorescent substrates MeOSuc-AAPV-AMC (Merck Millipore) were added to each well at final concentration 100 μM. Fluorescence was monitored on a Molecular Devices Spectramax fluorescence plate reader at 460 nm with excitation at 380 nm for 30 min. Residual enzyme activity was calculated using the slope of fluorescence increase in the first 10 min. Percentage of enzyme inhibition was plotted using GraphPad Prism 6 software (GraphPad Prism, La Jolla, Calif., USA). The IC50 value and Ki value was calculated using the Morrison tight-binding equation provided by the software.

As to `CC(C)C(NC(=O)[C@@H]1CCCN1C(=O)[C@@H](NC(=O)c1ccc(C(=O)NCCOCCOCCNC(=O)NCCCCNC(=O)NCCOCCOCCNC(=O)c2ccc(C(=O)N[C@H](C(=O)N3CCC[C@H]3C(=O)NC(C(=O)C(F)(F)F)C(C)C)C(C)C)cc2)cc1)C(C)C)C(=O)C(F)(F)F` (some centres unmarked) [Compound 1], the half-inhibitory concentration (IC50) (commonly the concentration that gives 50% inhibition) is under 150 nM. Regarding `Cc1c(-c2ccnn2C)cc(C(=O)NCCOCCOCCNC(=O)NCCCCNC(=O)NCCOCCOCCNC(=O)c2cc(-c3ccnn3C)c(C)n(-c3cccc(C(F)(F)F)c3)c2=O)c(=O)n1-c1cccc(C(F)(F)F)c1` [Compound 2], the IC50 was in the range of 150 to 1000 nM.

As for `Cc1c(-c2ccnn2-c2ccc(C#N)cc2)cc(C(=O)NCCOCCOCCNC(=O)NCCOCCOCCNC(=O)c2cc(-c3ccnn3-c3ccc(C#N)cc3)c(C)n(-c3cccc(C(F)(F)F)c3)c2=O)c(=O)n1-c1cccc(C(F)(F)F)c1` [Compound 3], the half-inhibitory concentration (IC50) is under 150 nM. `Cc1c(-c2ccnn2-c2ccc(C#N)cc2)cc(C(=O)NCCOCCOCCOCCOCCNC(=O)NCCCCNC(=O)NCCOCCOCCOCCOCCNC(=O)c2cc(-c3ccnn3-c3ccc(C#N)cc3)c(C)n(-c3cccc(C(F)(F)F)c3)c2=O)c(=O)n1-c1cccc(C(F)(F)F)c1` [Compound 4]: the IC50 is under 150 nM.

Regarding `Cc1c(-c2ccnn2-c2ccc(C#N)cc2)cc(C(=O)NCCOCCOCCOCCOCCNC(=O)CCC(=O)NCCOCCOCCOCCOCCNC(=O)c2cc(-c3ccnn3-c3ccc(C#N)cc3)c(C)n(-c3cccc(C(F)(F)F)c3)c2=O)c(=O)n1-c1cccc(C(F)(F)F)c1` [Compound 5], the IC50 is under 150 nM.

In the case of `Cc1c(-c2ccnn2-c2ccc(C#N)cc2)cc(C(=O)NCCOCCOCCOCCOCCNC(=O)NCCOCCOCCOCCOCCNC(=O)c2cc(-c3ccnn3-c3ccc(C#N)cc3)c(C)n(-c3cccc(C(F)(F)F)c3)c2=O)c(=O)n1-c1cccc(C(F)(F)F)c1` [Compound 6], the concentration for half-maximal inhibition (IC50) was under 150 nM.

With `Cc1c(-c2ccnn2-c2ccc(C#N)cc2)cc(C(=O)NCCOCCOCCOCCOCCNC(=O)C(=O)NCCOCCOCCOCCOCCNC(=O)c2cc(-c3ccnn3-c3ccc(C#N)cc3)c(C)n(-c3cccc(C(F)(F)F)c3)c2=O)c(=O)n1-c1cccc(C(F)(F)F)c1` [Compound 7], the concentration for half-maximal inhibition (IC50) lay in the range of 150 to 1000 nM. On to `Cc1c(-c2ccnn2-c2ccc(C#N)cc2)cc(C(=O)NCCOCCOCCNC(=O)CCC(=O)NCCOCCOCCNC(=O)c2cc(-c3ccnn3-c3ccc(C#N)cc3)c(C)n(-c3cccc(C(F)(F)F)c3)c2=O)c(=O)n1-c1cccc(C(F)(F)F)c1` [Compound 8], for which the 50% inhibitory concentration (IC50) is under 150 nM.

Turning to `Cc1c(-c2ccnn2-c2ccc(C#N)cc2)cc(C(=O)NCCOCCOCCNC(=O)C(=O)NCCOCCOCCNC(=O)c2cc(-c3ccnn3-c3ccc(C#N)cc3)c(C)n(-c3cccc(C(F)(F)F)c3)c2=O)c(=O)n1-c1cccc(C(F)(F)F)c1` [Compound 9], the IC50 is under 150 nM.

Regarding `Cc1c(-c2ccnn2-c2ccc(C#N)cc2)cc(C(=O)NCCOCCOCCOCCNC(=O)NCCOCCOCCOCCNC(=O)c2cc(-c3ccnn3-c3ccc(C#N)cc3)c(C)n(-c3cccc(C(F)(F)F)c3)c2=O)c(=O)n1-c1cccc(C(F)(F)F)c1` [Compound 10], the IC50 is under 150 nM. With `Cc1c(-c2ccnn2-c2ccc(C#N)cc2)cc(C(=O)NCCOCCOCCOCCNC(=O)NCCCCNC(=O)NCCOCCOCCOCCNC(=O)c2cc(-c3ccnn3-c3ccc(C#N)cc3)c(C)n(-c3cccc(C(F)(F)F)c3)c2=O)c(=O)n1-c1cccc(C(F)(F)F)c1` [Compound 11], the IC50 was in the range of 150 to 1000 nM. On to `Cc1c(-c2ccnn2-c2ccc(C#N)cc2)cc(C(=O)NCCOCCOCCOCCNC(=O)CCC(=O)NCCOCCOCCOCCNC(=O)c2cc(-c3ccnn3-c3ccc(C#N)cc3)c(C)n(-c3cccc(C(F)(F)F)c3)c2=O)c(=O)n1-c1cccc(C(F)(F)F)c1` [Compound 12], for which the concentration for half-maximal inhibition (IC50) was under 150 nM.

On to `Cc1c(-c2ccnn2-c2ccc(C#N)cc2)cc(C(=O)NCCOCCOCCOCCNC(=O)C(=O)NCCOCCOCCOCCNC(=O)c2cc(-c3ccnn3-c3ccc(C#N)cc3)c(C)n(-c3cccc(C(F)(F)F)c3)c2=O)c(=O)n1-c1cccc(C(F)(F)F)c1` [Compound 13], for which the IC50 is under 150 nM. As to `Cc1c(-c2ccnn2-c2ccc(C#N)cc2)cc(C(=O)NCCOCCOCCNC(=O)NCCCCNC(=O)NCCOCCOCCNC(=O)c2cc(-c3ccnn3-c3ccc(C#N)cc3)c(C)n(-c3cccc(C(F)(F)F)c3)c2=O)c(=O)n1-c1cccc(C(F)(F)F)c1` [Compound 14], the concentration for half-maximal inhibition (IC50) is under 150 nM. As for `Cc1c([S+]([O-])c2ccc(C#N)cc2)cc(C(=O)NCCOCCOCCOCCOCCNC(=O)NCCCCNC(=O)NCCOCCOCCOCCOCCNC(=O)c2cc([S+]([O-])c3ccc(C#N)cc3)c(C)n(-c3cccc(C(F)(F)F)c3)c2=O)c(=O)n1-c1cccc(C(F)(F)F)c1` (centres unmarked) [Compound 15], the IC50 was under 150 nM. `Cc1c([S+]([O-])c2ccc(C#N)cc2)cc(C(=O)NCCOCCOCCOCCOCCNC(=O)CCC(=O)NCCOCCOCCOCCOCCNC(=O)c2cc([S+]([O-])c3ccc(C#N)cc3)c(C)n(-c3cccc(C(F)(F)F)c3)c2=O)c(=O)n1-c1cccc(C(F)(F)F)c1` (centres unmarked) [Compound 16]: the IC50 is under 150 nM. Under `Cc1c([S+]([O-])c2ccc(C#N)cc2)cc(C(=O)NCCOCCOCCOCCNC(=O)NCCCCNC(=O)NCCOCCOCCOCCNC(=O)c2cc([S+]([O-])c3ccc(C#N)cc3)c(C)n(-c3cccc(C(F)(F)F)c3)c2=O)c(=O)n1-c1cccc(C(F)(F)F)c1` (centres unmarked) [Compound 17] stands 150 to 1000 nM. Take `Cc1c([S+]([O-])c2ccc(C#N)cc2)cc(C(=O)NCCOCCOCCOCCNC(=O)CCC(=O)NCCOCCOCCOCCNC(=O)c2cc([S+]([O-])c3ccc(C#N)cc3)c(C)n(-c3cccc(C(F)(F)F)c3)c2=O)c(=O)n1-c1cccc(C(F)(F)F)c1` (centres unmarked) [Compound 18]: the IC50 is under 150 nM. As for `Cc1c([S+]([O-])c2ccc(C#N)cc2)cc(C(=O)NCCOCCOCCNC(=O)C(=O)NCCOCCOCCNC(=O)c2cc([S+]([O-])c3ccc(C#N)cc3)c(C)n(-c3cccc(C(F)(F)F)c3)c2=O)c(=O)n1-c1cccc(C(F)(F)F)c1` (centres unmarked) [Compound 19], the half-maximal inhibitory concentration (IC50) was under 150 nM. Under `Cc1c([S+]([O-])c2ccc(C#N)cc2)cc(C(=O)NCCOCCOCCNC(=O)NCCCCNC(=O)NCCOCCOCCNC(=O)c2cc([S+]([O-])c3ccc(C#N)cc3)c(C)n(-c3cccc(C(F)(F)F)c3)c2=O)c(=O)n1-c1cccc(C(F)(F)F)c1` (centres unmarked) [Compound 20] stands 150 to 1000 nM.
